Like-named read-outs stand apart in the source and are kept apart here.
Experiments:
[1] = tested on: NRF2; experiment: NRF2 induction, luciferase expression in AREc32 cell line; type: cell-based; conditions: AREc32 cells, 0.3, 3, 10 and 30 μM (LA: 0.1–0.6 mM), 24 h; mean ± SEM
Description: AREc32 cell line was kindly shared by Professor Roland Wolf (University of Dundee, UK). AREc32 cells were maintained in DMEM/glutamax/high glucose (Gibco, 61965-06, Madrid, Spain), supplemented with 1% penicillin–streptomycin (10,000 units) (SigmaAldrich, P4333, Madrid, Spain), geneticin (0.8 mg/mL) (Gibco, 11811-031) and 10% FBS (Gibco, 10270106), at 37 °C in a 5% CO2 air atmosphere. Cells were used from passage 4 to 18, and mycoplasma contamination was tested every 4 weeks. AREc32 cells were seeded in 96-well white plates (2 × 10^4 cells/well) for 24 h. Thereafter, cells were treated with each compound (0.3, 3, 10 and 30 µM) in duplicate for 24 h. Non-treated cells were included as basal luciferase expression and tert-butylhydroquinone (TBHQ, 10 μM) as positive control in each plate. Luciferase expression was evaluated by using the Luciferase Assay System (Promega, E1483, Madrid, Spain) by luminescence in an Orion II microplate luminometer (Berthold, Germany). Luciferase activity increase was normalized to basal conditions considered as 1. CD values (concentration required to double the luciferase activity) were calculated from dose–response curves of luciferase fold induction vs. compound concentration, fitted by non-linear regression and data interpolated to value 2.
To evaluate the influence of both stereogenic centers in the NRF2 induction capacity of aza-CGP37157-LA hybrids, we used the AREc32 cell line model by analyzing luciferase expression upon treatment with NRF2 inducers. AREc32 cells were exposed to increasing concentrations of tested compounds 7a–d (0.3, […], 10 and 30 μM) during 24 h; thereafter, luciferase expression was evaluated by luminescent assay to calculate the corresponding CD value (concentration to double luciferase expression). […] TBHQ was included as a positive control, and CGP37157, S- and R-LA, rac-3a and (rac,R)-3b and precursors derivatives (R-6 and S-6) were included for comparative purposes. […] Once R-LA is reduced, it might activate the phase II antioxidant response by acting as pro-oxidant over key Cys residues at KEAP1 to generate the corresponding lipoyl-cystinyl disulphide.

[2] = tested on: BV2 microglial cells; experiment: Nitrite production reduction in LPS-stimulated BV2 microglial cells (Griess); type: cell-based, mouse; conditions: Mus musculus, BV-2; 24 h pretreatment 0.3, 3, 10, 30 μM, then compound + LPS 100 ng/mL 18 h, Griess
Description: BV2 microglial cells were seeded at 2 × 10^4 cells/well and treated with compounds at increasing concentrations during 24 h in complete culture media. Then, treatments were removed, and BV2 cells were co-incubated with compounds and LPS (100 ng/mL) (O127:B8, SigmaAldrich, L3129) for additional 18 h in culture media supplemented with 1% FBS. Each plate included non-treated cells as basal nitrite production. Thereafter, nitrite production was determined by using the modified Griess assay. In brief, samples (150 μL) were mixed with DAPSONE (75 μL) (SigmaAldrich, A74807) and NEDA (75 μL) (SigmaAldrich, 33461), and the mixture was incubated at room temperature for 5 min. Light absorption was measured at 550 nm in a microplate reader (SPECTROstar nano, BMG Labtech). Basal nitrite production was referred to as 100% of nitrite production, and all data were normalized to the basal condition. Concentration needed to reduce nitrite production to 50% was calculated from graphical representation of percentage of nitrite production vs. compound concentration, and data were fitted by non-linear regression and interpolated to 50%.
Chronic neuroinflammation is considered a key pathological event in the early stages of AD development. Among immune cells present at CNS, microglia is related to host defense and tissue repair. Nonetheless, chronic neuroinflammation induced by an adverse environment of protein aggregates and exacerbated OS induces a neurotoxic activity of microglia that, finally, leads to neuronal death. […] To this end, we selected the BV2 microglial cell model stimulated by lipopolysaccharide (LPS), a TLR4 agonist that activates the pro-inflammatory response. CGP37157, R- and S-LA; analogue compounds rac-3a and (rac,R)-3b; and precursor derivatives 6 were included with comparative and reference purposes. Microglial BV2 cells were treated with increasing concentrations of the corresponding compound (0.3, 3, 10 and 30 µM) for 24 h following a pre-incubation protocol. Thereafter, treatments were exchanged by a combination of the corresponding compound at desired concentration and LPS (100 ng/mL) during 18 h. At the end of this period, nitrite production was evaluated by the Griess method as an indirect measurement of iNOS enzyme expression and BV2 activation.

[3] = DPPH reduction assay, antioxidant capacity; conditions: for IC50: mean ± SEM of three experiments; for DPPH Scavenging at 100 µM, %: compound 100 µM; for DPPH Scavenging at 100 µM, % / DPPH Scavenging at 1mM, %: DPPH 100 µM, 30 min, mean ± SEM; for DPPH Scavenging at 1mM, %: compound 1 mM
Description: Antioxidant capacity was evaluated by using described procedure slightly modified. Compounds (0.1 and 1 mM, final concentration) were diluted in assay media (EtOH/H2O, 70:30) and mixed with 100 μL of DPPH (SigmaAldrich, D9132, Madrid, Spain) solution (100 μM final concentration) in a clear 96-multiwell plate. Final solution was kept in dark for 30 min, and absorbance of DPPH was measured in a SpectroStar Nano plate-reader (BMG Labtech, Ortenberg, Germany) in duplicate at […]. All experiments included a blank (assay media), control (DPPH 100 μM) and a positive control (ascorbic acid, 100 μM). Data were evaluated as % absorbance (Abs) reduction of control after subtracting blank absorbance. % DPPH reduction = [100 − ((Abssample − Absblank) × 100]/Abscontrol
Initially, we evaluated the free-radical-scavenging capacity of derivatives 7a–d in the DPPH assay, based on the capacity of the tested derivatives to react with the 2,2-diphenyl-1-picrylhydracil radical to generate a non-radical derivate. Hybrid derivatives 7a–d were evaluated at two different concentrations (0.1 and 1 mM), considering the activities of previously reported racemic derivatives. […] Ascorbic acid was used as a positive control, and CGP37157, rac-3a and (rac,R)-3b were included as references. […] Those results are similar to those obtained for racemic mixtures 3a and 3b and a mixture of (S,R)-7b and (R,R)-7d obtained from rac-3 and R-lipoic acid.

[4] = Cytotoxicity in SH-SY5Y cell line (MTT); type: cell-based; conditions: human
Description: SH-SY5Y human neuroblastoma cells were seeded in 96-well clear multi-well plates (6 × 10^4 cells/well). Cells were treated with increasing concentrations of compounds (10, 30 and 100 μM) for 24 h. Thereafter, viability was assessed by the MTT method. Cytotoxic concentration to observe 50% mortality (CC50) values for compounds were interpolated from dose–response curves represented as percentage of cell death vs. concentration of compound, fitted by non-linear regression and data interpolated to value 50.
(§1) The tetrazolium ring of MTT can be cleaved by active dehydrogenases to produce a formazan precipitate. At the end of the experiments, MTT (SigmaAldrich, M2003) stock solution was added to each well to achieve a final concentration of 0.5 mg/mL. Cells were incubated for 2 h. Thereafter, culture media was removed, and DMSO was added to each well to dissolve the formazan precipitate. Finally, absorbance was measured in a microplate reader (SPECTROstar nano, BMG Labtech) at 570 nm. Absorbance obtained in basal conditions was considered as 100% cell viability.
In order to evaluate the potential pharmacological profile of new compounds, we first tested the potential neurotoxicity in the neuroblastoma SHSY5Y cell line. Toxicity was evaluated at increasing concentrations (10, 30 and 100 μM), and toxicity was measured as MTT reduction capability. CC50 values were calculated by non-linear regression of curves % survival vs. concentration (Supplementary Materials Figure S2). CGP37157 and previously studied racemic derivatives rac-3a and (rac,R)-3b were included as reference compounds. As previously described, LA is a non-neurotoxic compound at the concentrations texted.

[5] = tested on: SH-SY5Y neuroblastoma cells; experiment: Neuroprotection against rotenone/oligomycin A oxidative stress in SH-SY5Y cells (MTT); type: cell-based, human; conditions: compound 1 μM 24 h, then compound + R/O (30/10 μM) 24 h; for % Survival: basal = 100, R/O alone 53.4
Description: (§2) Human neuroblastoma SH-SY5Y cells were plated in 96-well clear multi-well plates (6 × 10^4 cells/well). The potential neuroprotective activity of compounds against OS was evaluated using the rotenone (30 μM) (SigmaAldrich, R8875) and oligomycin A (10 μM) (SigmaAldrich, 75351) (R/O) toxic mixture. Neuroprotection activity against Tau hyperphosphorylation was evaluated by using the okadaic acid (20 nM) model. Cells were pre-incubated with each compound (1 µM) for 24 h, and then treatments were removed and cells were incubated with compounds (1 µM) in the presence the corresponding toxic for additional 24 h. At the end of the experiments, viability was determined by the MTT method. Data were normalized from cell death induced by the toxic stimuli (considered as 100% cell death). Then, the protection percentages were calculated by subtracting from the death induced by toxic stimuli, the death in the presence of the compound.
as §1
Thus, we selected a pre-incubation protocol to evaluate their potential neuroprotective capacity based on the NRF2-induction activity and direct antioxidant effect. Compound pre-incubation would induce the expression of antioxidant enzymes regulated by the phase II antioxidant response, thus promoting cells’ survival. The co-incubation period would also evaluate their capacity to trap free radicals produced by intoxicated mitochondria. SH-SY5Y neuroblastoma cells were treated with compounds (1 µM) during 24 h, and then cells were co-incubated with the corresponding compound at the same concentration and the R/O combination (30/10 µM) for additional 24 h. Melatonin, a well-known antioxidant natural neurohormone, was included as a positive control (1 µM). Previously reported racemic derivatives (rac-3a and (rac,R)-3b) and their precursors ((±)-6, R-6 and S-6) were included for comparative purposes at the same concentration.

[6] = tested on: SH-SY5Y neuroblastoma cells; experiment: Neuroprotection against okadaic acid hyperphosphorylation in SH-SY5Y cells (MTT); type: cell-based, human; conditions: compound 1 μM 24 h, then compound + OA 24 h; for % Survival: basal = 100, OA alone 54.7; for % Protection: n.p = compound does not protect cells
Description: as §2, §1
Considering these precedents, we envisaged the evaluation of our compounds in a hyperphosphorylation toxicity model induced by okadaic acid (OA), a protein phosphatase 2A inhibitor [58, 59]. This inhibition causes an imbalance between kinase and phosphatase action, leading to hyperphosphorylation of proteins, in particular, Tau. Thus, treatment of SH-SY5Y neuroblastoma cells with OA is a well-stablished model of Tau hyperphosphorylation. Similarly, to the method used for the OS model, we selected a pre-incubation/co-incubation protocol to evaluate the potential neuroprotection capacity related to the NRF2 induction/antioxidant properties of the compounds. Cells were treated with compounds (±)-6, R-6, S-6 or 7a–d (1 µM) during 24 h; thereafter, cells were co-treated with compounds (1 µM) and OA (20 nM) for a further 24 h. Melatonin was also included as a positive control. Finally, cellular viability was evaluated by the MTT method. […] Finally, the (R,S)-7c diastereomer was not able to afford any protection, a result that might be in line with its low NRF2 induction capacity.

[7] = tested on: NRF2; conditions: AREc32 cells, 24 h; Table S1; ref [2] of the supplement; cited from earlier work

| IC50 [2] | IC50 [3] | Structure (SMILES) | CD (concentration required to double the specific luciferase activity) [1] | CC50 at 24 h [4] | % Protection [5] | % Survival [5] | % Survival [6] | % Protection [6] | DPPH Scavenging at 100 µM, % [3] | DPPH Scavenging at 1mM, % [3] | CD (concentration required to double the specific luciferase activity) [7] |
| --- | --- | --- | --- | --- | --- | --- | --- | --- | --- | --- | --- |
| > 30 µM |  | O=C(O)CCCC[C@H]1CCSS1 [(S)-Lipoic acid, reference compound] | > 600 µM |  |  |  |  |  |  |  |  |
|  | 16.2 ± 0.7 µM | O=C1O[C@H]([C@@H](O)CO)C(O)=C1O [Ascorbic acid, reference compound] |  |  |  |  |  |  |  |  |  |
|  |  | O=C1CN(CCO)[C@H](c2ccccc2Cl)c2cc(Cl)ccc2N1 [Compound S-6, (5S)-7-Chloro-5-(2-chlorophenyl)-4-(2-hydroxyethyl)-4,5-dihydro-1H-benzo[e][1,4]diazepin-2(3H)-one] | 14.4 ± 0.2 µM | > 100 µM | 51.5% | 74.7 ± 2.5% | 71.5 ± 10.0% | 41.9% | 8.47 ± 2.42% | 25.3 ± 1.5% |  |
|  | 11.4 ± 1 µM | Cc1c(C)c2c(c(C)c1O)CCC(C)(C(=O)O)O2 (stereo not drawn) [Trolox, reference compound] |  |  |  |  |  |  | 93.4 ± 0.5% | 92.2 ± 0.5% |  |
|  |  | O=C1CN(CCO)[C@@H](c2ccccc2Cl)c2cc(Cl)ccc2N1 [Compound R-6, (5R)-7-Chloro-5-(2-chlorophenyl)-4-(2-hydroxyethyl)-4,5-dihydro-1H-benzo[e][1,4]diazepin-2(3H)-one] | 11.8 ± 0.5 µM | > 100 µM | 45.7% | 75.1 ± 2.9% | 59.3 ± 10.6% | 14.2% | 10.30 ± 1.10% | 26.7 ± 1.3% |  |
|  |  | COc1ccc2[nH]cc(CCNC(C)=O)c2c1 [Mel, Melatonin, reference compound] |  |  | 46.1% | 68.0 ± 1.5% | 70.3 ± 4.3% | 31.1% |  |  |  |
|  |  | O=C1CN(CCO)C(c2ccccc2Cl)c2cc(Cl)ccc2N1 (racemic) [(±)-6, (rac)-7-Chloro-5-(2-chlorophenyl)-4-(2-hydroxyethyl)-4,5-dihydro-1H-benzo[e][1,4]diazepin-2(3H)-one, reference compound] |  |  |  | 74.4 ± 4.1% | 69.1 ± 6.4% | 33.4% |  |  | > 30 µM |

Reference: PMC8772772, “Enantioselective Synthesis and Pharmacological Evaluation of Aza-CGP37157–Lipoic Acid Hybrids for the Treatment of Alzheimer’s Disease” (Antioxidants, 2022)
